target: human PAD4 (hPAD4) (Homo sapiens (Human), UniProt Q9UM07); assay: RFMS Human PAD4 Functional Assay 1; format: biochemical; conditions: RFMS assay 1; 5 nM hPAD4, 250 μM BAEE substrate, 50 μM calcium, 37° C.
Outline: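 Recombinant hPAD4 (5 nM) was preincubated with compound (top 50 μM, 0.5% DMSO) for 30 min at 37 °C, then reacted with 250 μM BAEE for 90 min at 37 °C in pH 7.5 HEPES buffer with 50 μM calcium and 5 μM TPEN. Product was derivatized with phenyl glyoxal and quantified by RapidFire MS.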

Chain of human PAD4 (hPAD4) (Q9UM07 whole entry): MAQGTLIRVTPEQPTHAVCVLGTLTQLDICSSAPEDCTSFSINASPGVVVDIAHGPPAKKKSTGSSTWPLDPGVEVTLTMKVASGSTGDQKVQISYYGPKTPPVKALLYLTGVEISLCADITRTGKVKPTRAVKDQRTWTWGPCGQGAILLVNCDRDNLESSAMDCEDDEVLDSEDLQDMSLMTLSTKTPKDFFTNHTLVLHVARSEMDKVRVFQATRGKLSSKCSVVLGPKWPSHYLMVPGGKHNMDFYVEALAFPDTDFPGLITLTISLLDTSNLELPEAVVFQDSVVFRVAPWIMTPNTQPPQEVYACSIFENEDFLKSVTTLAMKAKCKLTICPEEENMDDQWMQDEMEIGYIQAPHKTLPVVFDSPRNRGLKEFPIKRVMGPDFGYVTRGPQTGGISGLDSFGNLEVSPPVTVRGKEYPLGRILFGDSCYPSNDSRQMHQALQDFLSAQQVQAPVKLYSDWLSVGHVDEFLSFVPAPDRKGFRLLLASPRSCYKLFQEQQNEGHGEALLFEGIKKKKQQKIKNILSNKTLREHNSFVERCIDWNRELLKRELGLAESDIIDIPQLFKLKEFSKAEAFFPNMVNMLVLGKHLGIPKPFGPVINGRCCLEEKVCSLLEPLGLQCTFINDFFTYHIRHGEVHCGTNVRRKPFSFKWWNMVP

In order of falling IC50:
1. Cc1c(-c2cc3ccc(-c4cccc(-c5nn[nH]n5)c4)cc3n2CC2CC2)nn2cc(C(=O)N3C[C@H](N)C[C@@H](F)C3)ccc12 [Example 368, (3R,5R)-1-{2-[1-(Cyclopropylmethyl)-6-[3-(2H-1,2,3,4-tetrazol-5-yl)phenyl]-1H-indol-2-yl]-3-methylpyrazolo[1,5-a]pyridine-6-carbonyl}-5-fluoropiperidin-3-amine]  2800 nM
2. Cc1c(-c2cc3ccc(-c4cc(Cl)c(CO)cc4F)cc3n2CC2CC2)nn2cc(C(=O)N3C[C@H](N)C[C@@H](F)C3)ccc12 [Example 375, [4-(2-{6-[(3R,5R)-3-Amino-5-fluoropiperidine-1-carbonyl]-3-methylpyrazolo[1,5-a]pyridin-2-yl}-1-(cyclopropylmethyl)-1H-indol-6-yl)-2-chloro-5-fluorophenyl]methanol]  1360 nM
3. Cc1c(-c2cc3ccc(-c4cccc(CO)c4)cc3n2CC2CC2)nn2cc(C(=O)N3C[C@H](N)C[C@@H](F)C3)ccc12 [Example 371, [3-(2-{6-[(3R,5R)-3-Amino-5-fluoropiperidine-1-carbonyl]-3-methylpyrazolo[1,5-a]pyridin-2-yl}-1-(cyclopropylmethyl)-1H-indol-6-yl)phenyl]methanol]  1070 nM
4. Cc1c(-c2cc3ccc(-c4cccc(CNS(C)(=O)=O)c4)cc3n2CC2CC2)nn2cc(C(=O)N3C[C@H](N)C[C@@H](F)C3)ccc12 [Example 367, N-{[3-(2-{6-[(3R,5R)-3-Amino-5-fluoropiperidine-1-carbonyl]-3-methylpyrazolo[1,5-a]pyridin-2-yl}-1-(cyclopropylmethyl)-1H-indol-6-yl)phenyl]methyl}methanesulfonamide]  1000 nM
5. COc1cc(C(=O)N2CCC[C@@H](N)C2)cn2nc(-c3cc4cccc(C5CCN(C(=O)[C@H](C)OC)CC5)c4n3CC3CC3)c(C)c12 [Example 403, (S)-1-(4-(2-(6-((R)-3-Aminopiperidine-1-carbonyl)-4-methoxy-3-methylpyrazolo[1,5-a]pyridin-2-yl)-1-(cyclopropylmethyl)-1H-indol-7-yl)piperidin-1-yl)-2-methoxypropan-1-one]  460 nM
6. Cc1cc(-c2ccc3cc(-c4nn5cc(C(=O)N6C[C@H](N)C[C@@H](F)C6)ccc5c4C)n(CC4CC4)c3c2)ccc1C(N)=O [Example 378, 4-(2-{6-[(3R,5R)-3-Amino-5-fluoropiperidine-1-carbonyl]-3-methylpyrazolo[1,5-a]pyridin-2-yl}-1-(cyclopropylmethyl)-1H-indol-6-yl)-2-methylbenzamide]  450 nM
7. Cc1c(-c2cc3ccc(-c4ccc(C(N)=O)cc4)cc3n2CC2CC2)nn2cc(C(=O)N3C[C@H](N)C[C@@H](F)C3)ccc12 [Example 373, 4-(2-{6-[(3R,5R)-3-Amino-5-fluoropiperidine-1-carbonyl]-3-methylpyrazolo[1,5-a]pyridin-2-yl}-1-(cyclopropylmethyl)-1H-indol-6-yl)benzamide]  200 nM
8. Cc1c(-c2cc3ccc(C(C)(O)C4CC4)nc3n2CC2CC2)nn2cc(C(=O)N3CC4CCC3[C@@H]4N)cc(F)c12 (stereo partly drawn) [Example 384, 1-(2-{6-[(7R)-7-Amino-2-azabicyclo[2.2.1]heptane-2-carbonyl]-4-fluoro-3-methylpyrazolo[1,5-a]pyridin-2-yl}-1-(cyclopropylmethyl)-1H-pyrrolo[2,3-b]pyridin-6-yl)-1-cyclopropylethan-1-ol]  200 nM
9. Cc1c(-c2cc3ccc(-c4ccccc4C(N)=O)cc3n2CC2CC2)nn2cc(C(=O)N3C[C@H](N)C[C@@H](F)C3)ccc12 [Example 372, 2-(2-{6-[(3R,5R)-3-Amino-5-fluoropiperidine-1-carbonyl]-3-methylpyrazolo[1,5-a]pyridin-2-yl}-1-(cyclopropylmethyl)-1H-indol-6-yl)benzamide]  190 nM
10. Cc1c(-c2cc3ccc(-c4ccn5c(C)nnc5c4)cc3n2CC2CC2)nn2cc(C(=O)N3C[C@H](N)C[C@@H](F)C3)ccc12 [Example 379, (3R,5R)-1-{2-[1-(Cyclopropylmethyl)-6-{3-methyl-[1,2,4]triazolo[4,3-a]pyridin-7-yl}-1H-indol-2-yl]-3-methylpyrazolo[1,5-a]pyridine-6-carbonyl}-5-fluoropiperidin-3-amine]  160 nM
11. Cc1c(-c2cc3ccc(C(C)(C)O)nc3n2CC2CC2)nn2cc(C(=O)N3CCC[C@@H](N)C3)ccc12 [Example 380, 2-(2-{6-[(3R)-3-Aminopiperidine-1-carbonyl]-3-methylpyrazolo[1,5-a]pyridin-2-yl}-1-(cyclopropylmethyl)-1H-pyrrolo[2,3-b]pyridin-6-yl)propan-2-ol]  140 nM
12. COc1cc(C(=O)N2C[C@H](N)C[C@@H](F)C2)cn2nc(-c3cc4cccc(C5CCN(C(=O)[C@@H](C)OC)CC5)c4n3CC3CC3)c(C)c12 [Example 395, (R)-1-(4-(2-(6-((3R,5R)-3-Amino-5-fluoropiperidine-1-carbonyl)-4-methoxy-3-methylpyrazolo[1,5-a]pyridin-2-yl)-1-(cyclopropylmethyl)-1H-indol-7-yl)piperidin-1-yl)-2-methoxypropan-1-one]  140 nM
13. Cc1c(-c2cc3ccc(-c4ccc(CNS(C)(=O)=O)cc4)cc3n2CC2CC2)nn2cc(C(=O)N3C[C@H](N)C[C@@H](F)C3)ccc12 [Example 370, N-{[4-(2-{6-[(3R,5R)-3-Amino-5-fluoropiperidine-1-carbonyl]-3-methylpyrazolo[1,5-a]pyridin-2-yl}-1-(cyclopropylmethyl)-1H-indol-6-yl)phenyl]methyl}methanesulfonamide]  130 nM
14. Cc1c(-c2ccc3cc(-c4nn5cc(C(=O)N6C[C@H](N)C[C@@H](F)C6)ccc5c4C)n(CC4CC4)c3c2)cc(F)c2[nH]c(=O)ccc12 [Example 376, 6-(2-{6-[(3R,5R)-3-Amino-5-fluoropiperidine-1-carbonyl]-3-methylpyrazolo[1,5-a]pyridin-2-yl}-1-(cyclopropylmethyl)-1H-indol-6-yl)-8-fluoro-5-methyl-1,2-dihydroquinolin-2-one]  120 nM
15. Cc1c(-c2cc3ccc(-c4ccc(C(N)=O)cc4Cl)cc3n2CC2CC2)nn2cc(C(=O)N3C[C@H](N)C[C@@H](F)C3)ccc12 [Example 377, 4-(2-{6-[(3R,5R)-3-Amino-5-fluoropiperidine-1-carbonyl]-3-methylpyrazolo[1,5-a]pyridin-2-yl}-1-(cyclopropylmethyl)-1H-indol-6-yl)-3-chlorobenzamide]  90 nM
16. COc1cc(C(=O)N2CCC[C@@H](N)C2)cn2nc(-c3cc4cccc(C5CCN(C(=O)[C@H]6CC[C@@H](O)CC6)CC5)c4n3CC3CC3)c(C)c12 [Example 406, ((R)-3-Aminopiperidin-1-yl)(2-(1-(cyclopropylmethyl)-7-(1-((1s,4s)-4-hydroxycyclohexane-1-carbonyl)piperidin-4-yl)-1H-indol-2-yl)-4-methoxy-3-methylpyrazolo[1,5-a]pyridin-6-yl)methanone]  90 nM
17. COc1cc(C(=O)N2CCC[C@@H](N)C2)cn2nc(-c3cc4cccc(C5CCN(C(=O)[C@@H](C)OC)CC5)c4n3CC3CC3)c(C)c12 [Example 402, (R)-1-(4-(2-(6-((R)-3-Aminopiperidine-1-carbonyl)-4-methoxy-3-methylpyrazolo[1,5-a]pyridin-2-yl)-1-(cyclopropylmethyl)-1H-indol-7-yl)piperidin-1-yl)-2-methoxypropan-1-one]  60 nM
18. Cc1c(-c2cc3ccc(C(C)(O)C(F)(F)F)nc3n2CC2CC2)nn2cc(C(=O)N3CC4CCC3[C@@H]4N)cc(F)c12 (stereo partly drawn) [Example 383, 2-(2-{6-[(7R)-7-Amino-2-azabicyclo[2.2.1]heptane-2-carbonyl]-4-fluoro-3-methylpyrazolo[1,5-a]pyridin-2-yl}-1-(cyclopropylmethyl)-1H-pyrrolo[2,3-b]pyridin-6-yl)-1,1,1-trifluoropropan-2-ol]  40 nM
19. COc1cc(C(=O)N2C[C@H](N)C[C@@H](F)C2)cn2nc(-c3cc4cccc(C5CCN(C(=O)[C@H](C)OC)CC5)c4n3CC3CC3)c(C)c12 [Example 404, (S)-1-(4-(2-(6-((3R,5R)-3-Amino-5-fluoropiperidine-1-carbonyl)-4-methoxy-3-methylpyrazolo[1,5-a]pyridin-2-yl)-1-(cyclopropylmethyl)-1H-indol-7-yl)piperidin-1-yl)-2-methoxypropan-1-one]  30 nM
20. Cc1c(-c2cc3ccc(-c4ccc(NS(C)(=O)=O)cc4)cc3n2CC2CC2)nn2cc(C(=O)N3C[C@H](N)C[C@@H](F)C3)ccc12 [Example 369, N-[4-(2-{6-[(3R,5R)-3-Amino-5-fluoropiperidine-1-carbonyl]-3-methylpyrazolo[1,5-a]pyridin-2-yl}-1-(cyclopropylmethyl)-1H-indol-6-yl)phenyl]methanesulfonamide]  20 nM
21. COCC(=O)N1CCC(c2cccc3cc(-c4nn5cc(C(=O)N6CCC[C@@H](N)C6)cc(OC)c5c4C)n(CC4CC4)c23)CC1 [Example 401, (R)-1-(4-(2-(6-(3-Aminopiperidine-1-carbonyl)-4-methoxy-3-methylpyrazolo[1,5-a]pyridin-2-yl)-1-(cyclopropylmethyl)-1H-indol-7-yl)piperidin-1-yl)-2-methoxyethan-1-one]  20 nM
22. COCC(=O)N1CCC(c2cccc3cc(-c4nn5cc(C(=O)N6C[C@H](N)C[C@@H](F)C6)cc(OC)c5c4C)n(CC4CC4)c23)CC1 [Example 405, 1-(4-(2-(6-((3R,5R)-3-Amino-5-fluoropiperidine-1-carbonyl)-4-methoxy-3-methylpyrazolo[1,5-a]pyridin-2-yl)-1-(cyclopropylmethyl)-1H-indol-7-yl)piperidin-1-yl)-2-methoxyethan-1-one]  20 nM
23. COc1cc(C(=O)N2C[C@H](N)C[C@@H](F)C2)cn2nc(-c3cc4cccc(C5CCN(C(=O)[C@H]6CC[C@H](O)CC6)CC5)c4n3CC3CC3)c(C)c12 [Example 391, ((3R,5R)-3-Amino-5-fluoropiperidin-1-yl)(2-(1-(cyclopropylmethyl)-7-(1-((1r,4r)-4-hydroxycyclohexane-1-carbonyl)piperidin-4-yl)-1H-indol-2-yl)-4-methoxy-3-methylpyrazolo[1,5-a]pyridin-6-yl)methanone]  10 nM
